# Data from ChEMBL document CHEMBL6096630, “Enhancing therapeutic efficacy in homologous recombination-proficient pancreatic cancer via the combination of PARP1-PROTAC and a BRD4 inhibitor” (Bioorg Med Chem, 2024).
# Active and inactive are the calls of the source. No cut-off for these calls is given here.
# Columns and labels:
# [1] = tested on: PANC-1; assay: Induction of DNA damage in human PANC-1 cells assessed as decrease in BRCA1 level at 2 uM in presence of JQ1 by Western blot analysis; format: functional, cell-based
# [2] = tested on: PANC-1; assay: Induction of cell cycle arrest in human PANC-1 cells assessed as accumulation at G1 phase at 0.6 uM incubated for 24 hrs by PI staining based flow cytometry (reference value: 51.70 %); format: functional
# [3] = tested on: PANC-1; assay: Induction of cell cycle arrest in human PANC-1 cells assessed as accumulation at G1 phase at 1.2 uM incubated for 24 hrs by PI staining based flow cytometry (reference value: 51.70 %); format: functional
# [4] = tested on: PANC-1; assay: Induction of cell cycle arrest in human PANC-1 cells assessed as accumulation at S phase at 1.2 uM incubated for 24 hrs by PI staining based flow cytometry (reference value: 38.94 %); format: functional
# [5] = tested on: PANC-1; assay: Induction of cell cycle arrest in human PANC-1 cells assessed as accumulation at S phase at 2.5 uM incubated for 24 hrs by PI staining based flow cytometry (reference value: 38.94 %); format: functional
# [6] = tested on: PANC-1; assay: Induction of cell cycle arrest in human PANC-1 cells assessed as accumulation at S phase at 5 uM incubated for 24 hrs by PI staining based flow cytometry (reference value: 38.94 %); format: functional
# [7] = tested on: PANC-1; assay: Induction of cell cycle arrest in human PANC-1 cells assessed as accumulation at G1 phase at 10 uM incubated for 24 hrs by PI staining based flow cytometry (reference value: 51.70 %); format: functional
# [8] = tested on: PANC-1; assay: Induction of cell cycle arrest in human PANC-1 cells assessed as accumulation at G2 phase at 2 uM incubated for 24 hrs in presence of JQ1 by PI staining based flow cytometry (reference value: 9.36 %); format: functional
# [9] = tested on: PANC-1; assay: Induction of cell cycle arrest in human PANC-1 cells assessed as accumulation at G2/M phase incubated for 24 hrs by PI staining based flow cytometry; format: functional; settings: dose 0.6-2 µM
# [10] = tested on: PANC-1; assay: Induction of cell cycle arrest in human PANC-1 cells assessed as accumulation at G0/G1 phase at 2 uM incubated for 24 hrs in presence of JQ1 by PI staining based flow cytometry relative to control; format: functional
# [11] = tested on: PANC-1; assay: Induction of apoptosis in human PANC-1 cells assessed as viable cells at 0.6 uM incubated for 48 hrs by Annexin V-FITC/PI staining based flow cytometry (reference value: 91.64 %); format: functional; settings: read-out: Activity
# [12] = tested on: PANC-1; assay: Induction of apoptosis in human PANC-1 cells assessed as early apoptotic cells at 0.6 uM incubated for 48 hrs by Annexin V-FITC/PI staining based flow cytometry (reference value: 1.41 %); format: functional
# [13] = tested on: PANC-1; assay: Induction of apoptosis in human PANC-1 cells assessed as necrotic cells at 0.6 uM incubated for 48 hrs by Annexin V-FITC/PI staining based flow cytometry (reference value: 3.09 %); format: functional
# [14] = tested on: PANC-1; assay: Induction of apoptosis in human PANC-1 cells assessed as viable cells at 1.2 uM incubated for 48 hrs by Annexin V-FITC/PI staining based flow cytometry (reference value: 91.64 %); format: functional; settings: read-out: Activity
# [15] = tested on: PANC-1; assay: Induction of apoptosis in human PANC-1 cells assessed as necrotic cells at 1.2 uM incubated for 48 hrs by Annexin V-FITC/PI staining based flow cytometry (reference value: 3.09 %); format: functional
# [16] = tested on: PANC-1; assay: Induction of apoptosis in human PANC-1 cells assessed as viable cells at 2.5 uM incubated for 48 hrs by Annexin V-FITC/PI staining based flow cytometry (reference value: 91.64 %); format: functional; settings: read-out: Activity
# [17] = tested on: PANC-1; assay: Induction of apoptosis in human PANC-1 cells assessed as necrotic cells at 2.5 uM incubated for 48 hrs by Annexin V-FITC/PI staining based flow cytometry (reference value: 3.09 %); format: functional
# [18] = tested on: PANC-1; assay: Induction of apoptosis in human PANC-1 cells assessed as early apoptotic cells at 5 uM incubated for 48 hrs by Annexin V-FITC/PI staining based flow cytometry (reference value: 1.41 %); format: functional
# [19] = tested on: PANC-1; assay: Induction of apoptosis in human PANC-1 cells assessed as early apoptotic cells at 10 uM incubated for 48 hrs by Annexin V-FITC/PI staining based flow cytometry (reference value: 1.41 %); format: functional
# [20] = tested on: PANC-1; assay: Induction of apoptosis in human PANC-1 cells assessed as late apoptotic cells at 2 uM incubated for 48 hrs in presence of JQ1 by Annexin V-FITC/PI staining based flow cytometry (reference value: 3.87 %); format: functional
# [21] = tested on: PANC-1; assay: Antitumor activity against human PANC-1 cells xenografted in BALB/c mouse at 40 mg/kg, ip for 4 weeks administered for 5 days consecutively and 2 days without treatment on every week in presence of JQ1 relative to control; format: functional; settings: PANC-1, 672 h, read-out: TGI
# [22] = Toxicity in BALB/c mouse xenografted with human PANC-1 cells assessed as animal morbidity at 40 mg/kg, ip for 4 weeks administered for 5 days consecutively and 2 days without treatment on every week; format: organism-based; settings: in vivo, 672 h
# [23] = Toxicity in BALB/c mouse xenografted with human PANC-1 cells assessed as animal morbidity at 40 mg/kg, ip for 4 weeks administered for 5 days consecutively and 2 days without treatment on every week in presence of JQ1; format: organism-based; settings: in vivo, 672 h
# [24] = Toxicity in BALB/c mouse xenografted with human PANC-1 cells assessed as animal mortality at 40 mg/kg, ip for 4 weeks administered for 5 days consecutively and 2 days without treatment on every week in presence of JQ1; format: organism-based; settings: in vivo, 672 h
# [25] = Toxicity in BALB/c mouse xenografted with human PANC-1 cells assessed as body weight loss at 40 mg/kg, ip for 4 weeks administered for 5 days consecutively and 2 days without treatment on every week in presence of JQ1; format: organism-based; settings: in vivo, 672 h
# [26] = Toxicity in BALB/c mouse xenografted with human PANC-1 cells assessed as pathological changes in heart at 40 mg/kg, ip for 4 weeks administered for 5 days consecutively and 2 days without treatment on every week by H and E staining based analysis; format: organism-based; settings: in vivo, 672 h
# [27] = Toxicity in BALB/c mouse xenografted with human PANC-1 cells assessed as pathological changes in liver at 40 mg/kg, ip for 4 weeks administered for 5 days consecutively and 2 days without treatment on every week in presence of JQ1 by H and E staining based analysis; format: organism-based; settings: in vivo, 672 h
# [28] = Toxicity in BALB/c mouse xenografted with human PANC-1 cells assessed as pathological changes in kidney at 40 mg/kg, ip for 4 weeks administered for 5 days consecutively and 2 days without treatment on every week by H and E staining based analysis; format: organism-based; settings: in vivo, 672 h
# [29] = Toxicity in BALB/c mouse xenografted with human PANC-1 cells assessed as pathological changes in kidney at 40 mg/kg, ip for 4 weeks administered for 5 days consecutively and 2 days without treatment on every week in presence of JQ1 by H and E staining based analysis; format: organism-based; settings: in vivo, 672 h
# [30] = Toxicity in BALB/c mouse xenografted with human PANC-1 cells assessed as drug tolerance at 40 mg/kg, ip for 4 weeks administered for 5 days consecutively and 2 days without treatment on every week; format: organism-based; settings: in vivo, 672 h
# [31] = tested on: PANC-1; assay: Induction of cell cycle arrest in human PANC-1 cells assessed as accumulation at G0/G1 phase at 0.12 to 2 uM incubated for 24 hrs by PI staining based flow cytometry; format: functional; settings: dose 0.12-2 µM
Structure (SMILES),Activity [1],Activity [2] [%],Activity [3] [%],Activity [4] [%],Activity [5] [%],Activity [6] [%],Activity [7] [%],Activity [8] [%],Activity [9],Activity [10] [%],viability at 0.6 µM [11] [%],Activity [12] [%],Activity [13] [%],viability at 1.2 µM [14] [%],Activity [15] [%],viability at 2.5 µM [16] [%],Activity [17] [%],Activity [18] [%],Activity [19] [%],Activity [20] [%],other results
O=C(c1cc(Cc2n[nH]c(=O)c3ccccc23)ccc1F)N1CCN(C(=O)C2CC2)CC1 [OLAPARIB],Active,46.78,46.59,41,41.49,43.96,35.31,15.74,Dose-dependent-effect,12.43,90.3,2.25,3.23,89.1,4.05,89.2,3.45,4.21,3.98,21.52,inhibition in vivo at 40 mg/kg [21]: 80.7%; Activity [22]: Non-toxic; Activity [23]: Non-toxic; Activity [24]: Non-toxic; Activity [25]: Toxic; Activity [26]: Non-toxic; Activity [27]: Non-toxic; Activity [28]: Non-toxic; Activity [29]: Non-toxic; Activity [30]: Non-toxic
O=C1CCC(N2C(=O)c3cccc(NC(=O)CNCCCCCCCCCCC(=O)N4CCN(C(=O)c5cc(Cc6n[nH]c(=O)c7ccccc67)ccc5F)CC4)c3C2=O)C(=O)N1 (configuration not stated),Active,45.34,45.72,42.94,43.26,42.71,43.14,22.93,Dose-dependent-effect,50.25,88.9,3.9,3.52,89.8,2.74,88.9,2.55,4.76,4.38,21.9,Activity [31]: 43.66%; inhibition in vivo at 40 mg/kg [21]: ≤ 98.5%; Activity [22]: Non-toxic; Activity [23]: Non-toxic; Activity [24]: Non-toxic; Activity [25]: Non-toxic; Activity [26]: Non-toxic; Activity [27]: Non-toxic; Activity [28]: Non-toxic; Activity [29]: Non-toxic; Activity [30]: Non-toxic
Cc1sc2c(c1C)C(c1ccc(Cl)cc1)=N[C@@H](CC(=O)OC(C)(C)C)c1nnc(C)n1-2,,,,,,,,,,,,,,,,,,,,,Activity [31]: Active
